# Experimental data taken from patent publication US4192944A, “Optionally substituted 4-oxo-4H-pyrido[1,2-a]pyrimidine-3-N-(1H-tetrazol-4-yl)carboxamides and their use as antiallergy agents” (priority 1978, dated 1980).
# Like-named read-outs stand apart in the source and are kept apart here.
# How the values were obtained:
# [1] = cited from earlier work
# [2] = system: reagin-mediated Passive Cutaneous Anaphylaxis (PCA); test: reagin-mediated rat Passive Cutaneous Anaphylaxis (PCA) screening test; format: in vivo
# Excerpt: The reagin-mediated rat Passive Cutaneous Anaphylaxis (PCA) screening test used to evaluate the present compounds is generally regarded as one of the best animal models for use in predicting the antiallergy activity of test compounds in man. This screen provides a measure of the effectiveness of test compounds in either inhibiting the release or antagonizing the action of mediators arising from the interaction of reaginic antibodies with specific antigen, mediators which are causative factors in allergic disorders. The details of the test are fully described in U.S. Pat. No. 4,031,093.
# The test compounds were solubilized in aqueous sodium bicarbonate and administered intravenously (i.v.) or per os (p.o.) either one or ten minutes, respectively, prior to antigen challenge. Disodium cromoglycate (DSCG), solubilized in saline, was administered i.v. at the time of challenge and p.o 30 minutes prior to challenge.
# [3] = must be administered by inhalation; cited from earlier work
# [4] = system: release of mediators, e.g. histamine and SRS-A; conditions: administered to asthmatic patients prior to inhalation of specific antigens; cited from earlier work
# [5] = po, in aqueous sodium bicarbonate, ten minutes prior to antigen challenge, read-out: ID50 p.o. (dose of compound that inhibits 50% of the response)
compound,measurement,setting,value
"O=C(O)c1cc(=O)c2c(OCC(O)COc3cccc4oc(C(=O)O)cc(=O)c34)cccc2o1 [DSCG, Disodium cromoglycate]",side effects,[1]; in vivo,without cardiovascular side effects
same,ED50,"[2]; iv, DSCG, i.v., in saline, at the time of challenge, read-out: ID50 i.v. (dose of compound that inhibits 50% of the response)",0.6 mg/kg
same,ED50,"[2]; po, DSCG, p.o., in saline, 30 minutes prior to challenge, read-out: ID50 p.o. (dose of compound that inhibits 50% of the response)",> 30 mg/kg
same,oral absorption,[3],not orally absorbed
same,"inhibition of release of mediators (histamine, SRS-A)",[4],inhibits the release of mediators
"O=C(Nc1nnn[nH]1)c1cnc2ccccn2c1=O [Example 1, 4-Oxo-4H-pyrido[1,2-a]pyrimidine-3-N-(1H-tetrazol-5-yl)carboxamide]",ED50,[2]; [5],0.2 mg/kg
"Cc1cccn2c(=O)c(C(=O)Nc3nnn[nH]3)cnc12 [Example 2, 9-Methyl-4-oxo-4H-pyrido[1,2-a]pyrimidine-3-N-(1H-tetrazol-5-yl)carboxamide]",ED50,"[2]; iv, in aqueous sodium bicarbonate, one minute prior to antigen challenge, read-out: ID50 i.v. (dose of compound that inhibits 50% of the response)",0.04 mg/kg
same,ED50,[2]; [5],0.1 mg/kg
"CCc1cccn2c(=O)c(C(=O)Nc3nnn[nH]3)cnc12 [Example 3, 9-Ethyl-4-oxo-4H-pyrido[1,2-a]pyrimidine-3-N-(1H-tetrazol-5-yl)carboxamide]",ED50,[2]; [5],0.1 mg/kg
CN1[C@@H]2CC[C@H]1C[C@@H](OC(=O)C(CO)c1ccccc1)C2 (stereo partly shown) [atropine],side effects,[1]; treatment of bronchial asthma,cardiac stimulation and gastrointestinal distress
CNC[C@H](O)c1ccc(O)c(O)c1 [epinephrine],side effects,[1]; treatment of bronchial asthma,cardiac stimulation and gastrointestinal distress
CC(C)NCC(O)c1ccc(O)c(O)c1 (stereo not shown) [isoproterenol],side effects,[1]; treatment of bronchial asthma,cardiac stimulation and gastrointestinal distress
Cn1c(=O)c2[nH]cnc2n(C)c1=O [theophylline],side effects,[1]; in vivo,cardiac stimulation and gastrointestinal distress
